Experimental data as given in the NIST ThermoML archive (doi:10.1016/j.jct.2008.06.017).
± gives the expanded uncertainty stated by the source.

Experiment: xn = mol fraction of the nth substance listed
Details: Liquid, Vibrating tube method

COC(=O)OC [dimethyl carbonate] + C=C(C)C(=O)OCCCC
x1 = 1
Details | mass density [kg/m3]
293.15 K | 1069.79 ± 0.067
303.15 K | 1056.75 ± 0.063
313.15 K | 1043.37 ± 0.06

COC(=O)OC [dimethyl carbonate] + C=CCOC(=O)C(=C)C
x1 = 1
Details | mass density [kg/m3]
293.15 K | 1069.79 ± 0.067
303.15 K | 1056.75 ± 0.063
313.15 K | 1043.37 ± 0.06

C=COC(C)=O [vinyl acetate] + COC(=O)OC
Details | mass density [kg/m3]
293.15 K, x2 = 0 | 931.95 ± 0.067
293.15 K, x2 = 0.025 | 935.258 ± 0.071
293.15 K, x2 = 0.0504 | 938.581 ± 0.07
293.15 K, x2 = 0.1002 | 945.231 ± 0.069
293.15 K, x2 = 0.1537 | 952.421 ± 0.067
293.15 K, x2 = 0.1999 | 958.65 ± 0.065
293.15 K, x2 = 0.25 | 965.315 ± 0.064
293.15 K, x2 = 0.3001 | 972.123 ± 0.062
293.15 K, x2 = 0.3498 | 978.865 ± 0.061
293.15 K, x2 = 0.4002 | 985.701 ± 0.059
293.15 K, x2 = 0.4503 | 992.611 ± 0.058
293.15 K, x2 = 0.5 | 999.443 ± 0.057
293.15 K, x2 = 0.5502 | 1006.39 ± 0.058
293.15 K, x2 = 0.6001 | 1013.38 ± 0.059
293.15 K, x2 = 0.6495 | 1020.26 ± 0.061
293.15 K, x2 = 0.6934 | 1026.46 ± 0.062
293.15 K, x2 = 0.7501 | 1034.48 ± 0.064
293.15 K, x2 = 0.7971 | 1041.1 ± 0.065
293.15 K, x2 = 0.8499 | 1048.6 ± 0.067
293.15 K, x2 = 0.9002 | 1055.59 ± 0.069
293.15 K, x2 = 0.9493 | 1062.61 ± 0.071
293.15 K, x2 = 0.975 | 1066.22 ± 0.071
303.15 K, x2 = 0 | 919.089 ± 0.071
303.15 K, x2 = 0.025 | 922.4 ± 0.074
303.15 K, x2 = 0.0501 | 925.708 ± 0.074
303.15 K, x2 = 0.0999 | 932.33 ± 0.072
303.15 K, x2 = 0.15 | 939.009 ± 0.07
303.15 K, x2 = 0.1998 | 945.689 ± 0.068
303.15 K, x2 = 0.2499 | 952.431 ± 0.067
303.15 K, x2 = 0.3004 | 959.251 ± 0.065
303.15 K, x2 = 0.35 | 965.996 ± 0.064
303.15 K, x2 = 0.4003 | 972.857 ± 0.062
303.15 K, x2 = 0.4488 | 979.518 ± 0.061
303.15 K, x2 = 0.4999 | 986.544 ± 0.059
303.15 K, x2 = 0.5496 | 993.403 ± 0.058
303.15 K, x2 = 0.6 | 1000.41 ± 0.057
303.15 K, x2 = 0.6489 | 1007.22 ± 0.058
303.15 K, x2 = 0.6986 | 1014.13 ± 0.059
303.15 K, x2 = 0.7494 | 1021.26 ± 0.061
303.15 K, x2 = 0.8 | 1028.36 ± 0.062
303.15 K, x2 = 0.8496 | 1035.38 ± 0.064
303.15 K, x2 = 0.8999 | 1042.51 ± 0.066
303.15 K, x2 = 0.9496 | 1049.56 ± 0.067
303.15 K, x2 = 0.9753 | 1053.22 ± 0.068
313.15 K, x2 = 0 | 906.116 ± 0.075
313.15 K, x2 = 0.0248 | 909.387 ± 0.078
313.15 K, x2 = 0.0501 | 912.718 ± 0.077
313.15 K, x2 = 0.1003 | 919.392 ± 0.075
313.15 K, x2 = 0.1499 | 925.976 ± 0.073
313.15 K, x2 = 0.2001 | 932.73 ± 0.072
313.15 K, x2 = 0.25 | 939.446 ± 0.07
313.15 K, x2 = 0.2999 | 946.16 ± 0.068
313.15 K, x2 = 0.3502 | 953.002 ± 0.067
313.15 K, x2 = 0.3999 | 959.753 ± 0.065
313.15 K, x2 = 0.45 | 966.575 ± 0.063
313.15 K, x2 = 0.4996 | 973.402 ± 0.062
313.15 K, x2 = 0.5501 | 980.351 ± 0.06
313.15 K, x2 = 0.5998 | 987.189 ± 0.059
313.15 K, x2 = 0.6502 | 994.195 ± 0.058
313.15 K, x2 = 0.7 | 1001.12 ± 0.057
313.15 K, x2 = 0.7501 | 1008.14 ± 0.058
313.15 K, x2 = 0.7999 | 1015.14 ± 0.059
313.15 K, x2 = 0.8499 | 1022.15 ± 0.061
313.15 K, x2 = 0.8995 | 1029.12 ± 0.062
313.15 K, x2 = 0.9501 | 1036.31 ± 0.064
313.15 K, x2 = 0.9746 | 1039.75 ± 0.065

COC(=O)OC [dimethyl carbonate] + C=Cc1ccccc1
x1 = 1
Details | mass density [kg/m3]
293.15 K | 1069.79 ± 0.067
303.15 K | 1056.75 ± 0.063
313.15 K | 1043.37 ± 0.06

C=C(C)C(=O)OCCCC [butyl 2-methyl-2-propenoate] + COC(=O)OC
Details | mass density [kg/m3]
293.15 K, x2 = 0 | 895.231 ± 0.11
293.15 K, x2 = 0.0253 | 897.401 ± 0.11
293.15 K, x2 = 0.0496 | 899.525 ± 0.11
293.15 K, x2 = 0.1 | 904.247 ± 0.1
293.15 K, x2 = 0.1512 | 909.195 ± 0.099
293.15 K, x2 = 0.2002 | 914.234 ± 0.095
293.15 K, x2 = 0.2501 | 919.652 ± 0.092
293.15 K, x2 = 0.3 | 925.514 ± 0.088
293.15 K, x2 = 0.3496 | 931.664 ± 0.085
293.15 K, x2 = 0.4002 | 938.381 ± 0.082
293.15 K, x2 = 0.45 | 945.36 ± 0.079
293.15 K, x2 = 0.4998 | 952.885 ± 0.076
293.15 K, x2 = 0.5499 | 960.906 ± 0.074
293.15 K, x2 = 0.6 | 969.499 ± 0.071
293.15 K, x2 = 0.6499 | 978.774 ± 0.07
293.15 K, x2 = 0.7003 | 988.865 ± 0.069
293.15 K, x2 = 0.7501 | 999.691 ± 0.068
293.15 K, x2 = 0.7998 | 1011.24 ± 0.072
293.15 K, x2 = 0.8502 | 1024.04 ± 0.076
293.15 K, x2 = 0.8997 | 1037.82 ± 0.082
293.15 K, x2 = 0.9499 | 1053.1 ± 0.087
293.15 K, x2 = 0.9747 | 1061.18 ± 0.091
303.15 K, x2 = 0 | 885.991 ± 0.11
303.15 K, x2 = 0.0255 | 888.128 ± 0.11
303.15 K, x2 = 0.0511 | 890.378 ± 0.11
303.15 K, x2 = 0.0984 | 894.561 ± 0.11
303.15 K, x2 = 0.1496 | 899.445 ± 0.1
303.15 K, x2 = 0.1998 | 904.542 ± 0.098
303.15 K, x2 = 0.251 | 909.93 ± 0.094
303.15 K, x2 = 0.3 | 915.538 ± 0.091
303.15 K, x2 = 0.3498 | 921.462 ± 0.087
303.15 K, x2 = 0.4002 | 927.876 ± 0.084
303.15 K, x2 = 0.4505 | 934.768 ± 0.081
303.15 K, x2 = 0.5001 | 942.022 ± 0.078
303.15 K, x2 = 0.5497 | 949.757 ± 0.076
303.15 K, x2 = 0.6003 | 958.326 ± 0.074
303.15 K, x2 = 0.6507 | 967.581 ± 0.072
303.15 K, x2 = 0.7003 | 977.274 ± 0.07
303.15 K, x2 = 0.7503 | 987.854 ± 0.069
303.15 K, x2 = 0.8003 | 999.303 ± 0.069
303.15 K, x2 = 0.8497 | 1011.72 ± 0.073
303.15 K, x2 = 0.8997 | 1025.31 ± 0.079
303.15 K, x2 = 0.95 | 1040.3 ± 0.083
303.15 K, x2 = 0.9746 | 1048.26 ± 0.088
313.15 K, x2 = 0 | 876.19 ± 0.12
313.15 K, x2 = 0.0248 | 878.23 ± 0.12
313.15 K, x2 = 0.0506 | 880.426 ± 0.11
313.15 K, x2 = 0.1009 | 884.856 ± 0.11
313.15 K, x2 = 0.1505 | 889.457 ± 0.1
313.15 K, x2 = 0.2003 | 894.361 ± 0.1
313.15 K, x2 = 0.2512 | 899.681 ± 0.097
313.15 K, x2 = 0.3005 | 905.153 ± 0.093
313.15 K, x2 = 0.3502 | 910.961 ± 0.09
313.15 K, x2 = 0.4009 | 917.353 ± 0.087
313.15 K, x2 = 0.4509 | 924.075 ± 0.084
313.15 K, x2 = 0.4999 | 931.103 ± 0.081
313.15 K, x2 = 0.5506 | 938.855 ± 0.078
313.15 K, x2 = 0.6 | 947.003 ± 0.076
313.15 K, x2 = 0.6502 | 955.954 ± 0.074
313.15 K, x2 = 0.7002 | 965.503 ± 0.072
313.15 K, x2 = 0.7503 | 975.976 ± 0.071
313.15 K, x2 = 0.7999 | 987.089 ± 0.071
313.15 K, x2 = 0.8501 | 999.417 ± 0.071
313.15 K, x2 = 0.8998 | 1012.69 ± 0.076
313.15 K, x2 = 0.9498 | 1027.3 ± 0.08
313.15 K, x2 = 0.9751 | 1035.15 ± 0.085
